Test results published in US9441012B2, “Fluorinated epoxyketone-based compounds and uses thereof as proteasome inhibitors” (FLUORINOV PHARMA INC., priority 2012, dated 2016).

What was measured:
Assay in all cases: NCI 60 human tumor cell line screen (SRB)
Type in all cases: cell-based
MALME-3M = MALME-3M (Melanoma); 48 h
From the text: (§1) Representative compounds of Formula I were screened using the National Cancer Institute (NCI) screening panel, which consists of a panel of 60 different human tumor cell lines, representing leukemia [CCRF-CEM, HL-60 (TB), K-562, MOLT-4, SR], melanoma [LOX IMVI, MALME-3M, M14, SMDA-MB-435, SK-MEL-2, SK-MEL-28, SK-MEL-5, UACC-257 and UACC-62] and cancers of the lung [A549/ATCC, EKVX, HOP-62, HOP-93, NCI-H226, NCI-H23, NCI-H322M, NCI-H460], colon [COLO 205, HCT-116, HCT-15, HT29, KM12, SW-620], brain [SF-268, SF-295, SF-539, SNB-19, SNB-75, U251], ovary [IGROV1, OVCAR-3, OVCAR-4, OVCAR-5, OVCAR-8, NCI/ADR-RES, SK-OV-3], breast [MCF7, MDA-MB-231, BT-549, T-47D, MDA-MB-468], prostate [PC-3, DU-145], and renal[786-0, A498, ACHN, CAKI-1, RXF-393, SN12C, TK-10, UO-31] cancers.
(§2) After 24 h, two plates of each cell line are fixed in situ with TCA, to represent a measurement of the cell population for each cell line at the time of drug addition (Tz). Experimental drugs are solubilised in dimethyl sulfoxide at 400-fold the desired final maximum test concentration and stored frozen prior to use. At the time of drug addition, an aliquot of frozen concentrate is thawed and diluted to twice the desired final maximum test concentration with complete medium containing 50 μg/ml gentamicin. Additional four, 10-fold or ½ log serial dilutions are made to provide a total of five drug concentrations plus control. Aliquots of 100 μl of these different drug dilutions are added to the appropriate microtiter wells already containing 100 μl of medium, resulting in the required final drug concentrations.
(§3) Following drug addition, the plates are incubated for an additional 48 h at 37° C., 5% CO2, 95% air, and 100% relative humidity. For adherent cells, the assay is terminated by the addition of cold TCA (trichloroacetic acid). Cells are fixed in situ by the gentle addition of 50 μl of cold 50% (w/v) TCA (final concentration, 10% TCA) and incubated for 60 minutes at 4° C. The supernatant is discarded, and the plates are washed five times with tap water and air dried. Sulforhodamine B (SRB) solution (100 μl) at 0.4% (w/v) in 1% acetic acid is added to each well, and plates are incubated for 10 minutes at room temperature. After staining, unbound dye is removed by washing five times with 1% acetic acid and the plates are air dried. Bound stain is subsequently solubilised with 10 mM trizma base, and the absorbance is read on an automated plate reader at a wavelength of 515 nm. For suspension cells, the methodology is the same except that the assay is terminated by fixing settled cells at the bottom of the wells by gently adding 50 μl of 80% TCA (final concentration, 16% TCA). Using the seven absorbance measurements [time zero, (Tz), control growth, (C), and test growth in the presence of drug at the five concentration levels (Ti)], the percentage growth is calculated at each of the drug concentration levels. Percentage growth inhibition is calculated as: [(Ti−Tz)/(C−Tz)]×100 for concentrations in which Ti>/=Tz and [(Ti−Tz)/Tz]×100 for concentrations in which Ti<Tz.
(§4) Three dose response parameters are calculated for each experimental agent. Growth inhibition of 50% (GI50) is calculated from [(Ti−Tz)/(C−Tz)]100=50, which is the drug concentration resulting in a 50% reduction in the net protein increase (as measured by SRB staining) in control cells during the drug incubation. The drug concentration resulting in total growth inhibition (TGI) is calculated from Ti=Tz. The LC50 (concentration of drug resulting in a 50% reduction in the measured protein at the end of the drug treatment as compared to that at the beginning) indicating a net loss of cells following treatment is calculated from [(Ti−Tz)/Tz]×100=−50. Values are calculated for each of these three parameters if the level of activity is reached. However, if the effect is not reached or is exceeded, the value for that parameter is expressed as greater or less than the maximum or minimum concentration tested.

SF-268 = SF-268 (CNS Cancer); 48 h
From the text: as §1, §2, §3, §4

HT29 = HT29 (Colon Cancer); 48 h
From the text: as §1, §2, §3, §4

MDA-MB-231/ATCC = MDA-MB-231/ATCC (Breast Cancer); 48 h
From the text: as §1, §2, §3, §4

SK-MEL-28 = SK-MEL-28 (Melanoma); 48 h
From the text: as §1, §2, §3, §4

UACC-62 = UACC-62 (Melanoma); 48 h
From the text: as §1, §2, §3, §4

IGROV1 = IGROV1 (Ovarian Cancer); 48 h
From the text: as §1, §2, §3, §4

HCT-116 = HCT-116 (Colon Cancer); 48 h
From the text: as §1, §2, §3, §4

MDA-MB-435 = MDA-MB-435 (Melanoma); 48 h
From the text: as §1, §2, §3, §4

SN12C = SN12C (Renal Cancer); 48 h
SK-MEL-2 = SK-MEL-2 (Melanoma); 48 h
NCI-H522 = NCI-H522 (Non-Small Cell Lung Cancer); 48 h

## CC(C)C[C@H](NC(=O)[C@H](Cc1ccccc1)NC(=O)[C@H](COC(F)F)NC(=O)CN1CCOCC1)C(=O)[C@@]1(C)CO1 [Example 25, (2S)-2-[[(2S)-3-(difluoromethoxy)-2-[(2-morpholinoacetyl)amino]propanoyl]amino]-N-[(1S)-3-methyl-1-[(2R)-2-methyloxirane-2-carbonyl]butyl]-3-phenyl-propanamide]
MALME-3M
  Log10GI50: −7.51
  Log10LC50: >−4.00
  Log10TGI50: −6.64
SF-268
  Log10GI50: −7.60
  Log10LC50: >−4.00
  Log10TGI50: −7.14
HT29
  Log10GI50: −7.45
  Log10LC50: >−4.00
  Log10TGI50: −5.84
MDA-MB-231/ATCC
  Log10GI50: −7.52
  Log10LC50: −4.21
  Log10TGI50: −6.80
SK-MEL-28
  Log10GI50: −7.38
  Log10LC50: −4.82
  Log10TGI50: −6.69
UACC-62
  Log10GI50: −7.35
  Log10LC50: −4.58
  Log10TGI50: −6.63
IGROV1
  Log10GI50: −7.43
  Log10LC50: >−4.00
  Log10TGI50: −6.38
HCT-116
  Log10GI50: −7.70
  Log10LC50: −6.55
  Log10TGI50: −7.30
MDA-MB-435
  Log10GI50: −7.75
  Log10LC50: −7.10
  Log10TGI50: −7.42
SN12C
  Log10GI50: −7.39
  Log10LC50: −5.15
  Log10TGI50: −6.67
SK-MEL-2
  Log10GI50: −7.54
  Log10LC50: −5.46
  Log10TGI50: −7.03
NCI-H522
  Log10GI50: −7.67
  Log10LC50: >−4.00
  Log10TGI50: −7.19

## C[C@]1(C(=O)[C@H](Cc2ccccc2)NC(=O)[C@H](Cc2ccccc2)NC(=O)[C@H](COC(F)F)NC(=O)CN2CCOCC2)CO1 [Example 29]
MALME-3M
  Log10GI50: −6.69
  Log10LC50: >−4.00
  Log10TGI50: −6.15
SF-268
  Log10GI50: −7.27
  Log10LC50: >−4.00
  Log10TGI50: −6.50
HT29
  Log10GI50: −7.31
  Log10LC50: >−4.00
  Log10TGI50: −4.77
MDA-MB-231/ATCC
  Log10GI50: −7.04
  Log10LC50: −4.44
  Log10TGI50: −6.27
SK-MEL-28
  Log10GI50: −7.13
  Log10LC50: >−4.00
  Log10TGI50: −6.34
UACC-62
  Log10GI50: −7.00
  Log10LC50: >−4.00
  Log10TGI50: −6.37
IGROV1
  Log10GI50: −6.67
  Log10LC50: >−4.00
  Log10TGI50: >−4.00
HCT-116
  Log10GI50: −7.46
  Log10LC50: >−4.00
  Log10TGI50: −5.91
MDA-MB-435
  Log10GI50: −7.63
  Log10TGI50: −7.17
SN12C
  Log10GI50: −6.92
  Log10LC50: −4.39
  Log10TGI50: −6.38
SK-MEL-2
  Log10GI50: −7.19
  Log10LC50: >−4.00
  Log10TGI50: −6.02
NCI-H522
  Log10GI50: −6.90
  Log10LC50: >−4.00
  Log10TGI50: −6.17

## Cc1ncc(C(=O)N[C@@H](COC(F)F)C(=O)N[C@@H](COC(F)F)C(=O)N[C@@H](Cc2ccccc2)C(=O)[C@@]2(C)CO2)s1 [Example 1, 2-methyl-thiazole-5-carboxylic acid ((S)-1-{(S)-1-[(S)-1-benzyl-2-((R)-2-methyloxiranyl)-2-oxo-ethylcarbamoyl]-2-difluoromethoxyethylcarbamoyl}-2-difluoromethoxyethyl)-amide]
MALME-3M
  Log10GI50: −7.30
  Log10LC50: >−4.00
  Log10TGI50: −6.38
SF-268
  Log10GI50: −6.98
  Log10LC50: >−4.00
  Log10TGI50: −5.90
HT29
  Log10GI50: −7.29
  Log10LC50: −4.32
  Log10TGI50: −6.22
MDA-MB-231/ATCC
  Log10GI50: −6.66
  Log10LC50: −4.73
  Log10TGI50: −6.01
SK-MEL-28
  Log10GI50: −6.85
  Log10LC50: −4.69
  Log10TGI50: −6.12
UACC-62
  Log10GI50: −6.68
  Log10LC50: −4.95
  Log10TGI50: −5.78
HCT-116
  Log10GI50: −7.32
  Log10LC50: −6.17
  Log10TGI50: −6.71
MDA-MB-435
  Log10GI50: −7.43
  Log10LC50: >−4.00
  Log10TGI50: −6.74
SN12C
  Log10GI50: −6.54
  Log10LC50: −4.03
  Log10TGI50: −5.29
NCI-H522
  Log10GI50: −6.86
  Log10LC50: −4.15
  Log10TGI50: −6.15

## C[C@]1(C(=O)[C@H](Cc2ccccc2)NC(=O)[C@H](COC(F)F)NC(=O)[C@H](COC(F)F)NC(=O)CN2CCOCC2)CO1 [Example 26, (S)-N-{(S)-1-[(S)-1-Benzyl-2-((R)-2-methyl-oxiranyl)-2-oxo-ethylcarbamoyl]-2-difluoromethoxyethyl}-3-difluoromethoxy-2-(2-morpholin-4-yl-acetylamino)-propio-namide]
MALME-3M
  Log10GI50: −7.51
  Log10LC50: >−4.00
  Log10TGI50: −6.64
SF-268
  Log10GI50: −7.60
  Log10LC50: >−4.00
  Log10TGI50: −7.14
HT29
  Log10GI50: −7.45
  Log10LC50: >−4.00
  Log10TGI50: −5.84
MDA-MB-231/ATCC
  Log10GI50: −7.52
  Log10LC50: −4.21
  Log10TGI50: −6.80
SK-MEL-28
  Log10GI50: −7.38
  Log10LC50: −4.82
  Log10TGI50: −6.69
UACC-62
  Log10GI50: −7.35
  Log10LC50: −4.58
  Log10TGI50: −6.63
IGROV1
  Log10GI50: −7.43
  Log10LC50: >−4.00
HCT-116
  Log10GI50: −7.70
  Log10LC50: −6.55
  Log10TGI50: −7.30
MDA-MB-435
  Log10GI50: −7.75
  Log10LC50: −7.10
  Log10TGI50: −7.42
SN12C
  Log10GI50: −7.39
  Log10LC50: −5.15
  Log10TGI50: −6.67
SK-MEL-2
  Log10GI50: −7.54
  Log10LC50: −5.46
  Log10TGI50: −7.03
NCI-H522
  Log10GI50: −7.67
  Log10LC50: >−4.00
  Log10TGI50: −7.19
